Test system: syngeneic BRAFV600E PTEN−/− melanomas
Test: Syngeneic transplant tumor study: tumor growth, flow cytometry, Western blot, ELISA, qRT-PCR
Type: in vivo, mouse
Method: B6.Cg-Braf^tm1MmcmPten^tm1Hwu Tg(Tyr-cre/ERT2 H-2^b)13Bos/BosJ transgenic mice were subdermally injected with 4-Hydroxytomoxifen (4-HT) (Sigma, H6278-50MG CCF, 38.75 μg/mouse) to induce primary melanoma development at the base of the tail. Mice were randomly assigned to treatment cohorts once tumor volumes reached 64 mm^3 (19, 30, 50). Depending on the experiment, mice were treated with the following agents: CXCR2 inhibitor (AZD5069, AstraZeneca) at 100 mg/kg per os (po) twice daily, NLRP3 inhibitor (MCC950) 10 mg/kg i.p every other day, anti-PD1 ab (BioXCell) or rat IgG2a isotype control (BioXCell) at 200 μg by i.p. injection every 3 days, Dacarbazine (50 mg/kg or 75 mg/kg, Sigma-Aldrich, D2390) by i.p. injection once every other day. Melanoma growth was monitored by orthogonal caliper measurements every 3 days.
Braf^V600EPten^−/−, Braf^V600EPten^−/−-NTC, Braf^V600EPten^−/−-Wnt5a^KD, Braf^V600EPten^−/−-CXCL5^KD, Braf^V600EPten^−/−-PDL1^KD, and Braf^V600EPten^−/−-NLRP3^KD cell lines (0.5×10^5-1×10^5 cells) were implanted by subcutaneous injection into the base of the tail of syngeneic C57BL/6 mice. Tumor growth was monitored by caliper measurement every 3 days and treatment was initiated when tumor volumes reached 64 mm^3. Tumor volume was calculated according to the formula: cm^3=[(length (cm)×(width (cm))^2]/2.
One million cells were stained with 1 μg per million cells of each fluorochrome conjugated antibodies or commercially available dyes according to the standard protocols and analyzed using a FACSCanto II or LSRII (Becton Dickinson). Cells were stained with Fc receptor blocking antibodies followed by a live/dead discriminator (CellTrace Violet, ThermoFisher, C34571), then by conjugated antibodies for 30 min at 4° C. Cell number was calculated by hemocytometer. Flow cytometry data was analyzed using Flowjo software v10.3.
Tumor tissue or cells were homogenized in NP40 lysis buffer (Sigma-Aldrich) supplemented with complete protease inhibitor and phosphatase inhibitor (Roche). Cells were lysed in Laemmli sample buffer after treatment and subjected to SDS-polyacrylamide gel electrophoresis. After transferring onto PVDF membranes (Bio-Rad), monoclonal and polyclonal primary antibodies and appropriate HRP-conjugated secondary antibodies were utilized for blotting. For the immunoprecipitation assays, cells were lysed with TBS buffer (50 mM Tris-HCl (pH 7.4), 150 mM NaCl) containing 0.5% Triton X-100, EDTA-free protease inhibitor cocktail and phosphatase inhibitor cocktail, precleared with protein A/G beads, and then incubated with 1 μg of appropriate antibodies or isotype control IgG on a rotator overnight at 4° C. then incubated with protein A/G-agarose at 4° C. for 1 hour. After 5 washes with TBS buffer, immunoprecipitated complexes were eluted in sample buffer by boiling and subjected to immunoblot analysis. Immunoblots were visualized by chemiluminescence substrate (ThermoFisher) and imaged by a ChemiDoc XRSplus system (BioRad). For the ASC polymerization assay, cells were lysed with TBS buffer containing 0.5% Triton X-100, EDTA-free protease inhibitor cocktail and phosphatase inhibitor cocktail. The lysates were centrifuged at 4,000 g at 4° C. for 15 min. For the detection of ASC oligomerization, the Triton-insoluble pellets were washed twice with TBS buffer and then resuspended in 500 μl TBS buffer. The resuspended pellets were crosslinked for 30 min at room temperature with 2 mM Disuccinimidyl suberate (DSS) (Thermo Fisher Scientific, 21655) and then centrifuged for 15 min at 6,000 g. The pellets were dissolved in SDS sample buffer.
Total RNA was isolated by RNeasy Plus Mini Kit (Qiagen, 74134). RNA (1000 ng) was used in cDNA Synthesis (iScript Reverse Transcription Supermix, BioRad, 1708841). Data analysis utilized the PrimePCR Analysis Software (BioRad). […]

[1] = combined anti-PD-1 Ab and NLRP3 inhibitor

In the case of CC(C)(O)c1coc(S(=O)(=O)NC(=O)Nc2c3c(cc4c2CCC4)CCC3)c1 [MCC950, N-[[(1,2,3,5,6,7-hexahydro-s-indacen-4-yl)amino]carbonyl]-4-(1-hydroxy-1-methylethyl)-2-furansulfonamide], the “PMN-MDSC recruitment in response to anti-PD-1 Ab therapy” value (NLRP3 inhibition combined with anti-PD-1 Ab (200 μg i.p. every 3 days)) is reported as “diminished”, the “levels of tumor-infiltrating CD8+ T cells” value (NLRP3 inhibitor MCC950 combined with anti-PD-1 Ab) is reported as “enhanced” and the “tumor progression in vivo” value (NLRP3 inhibitor MCC950 combined with anti-PD-1 Ab, beyond what was observed with anti-PD-1 Ab monotherapy) is reported as “suppressed”. The “HSP70 release (plasma ELISA)” value (combined anti-PD-1 Ab and NLRP3 inhibition) was “suppressed”, the “Cxcl5 levels (tumor qRT-PCR)” value [1] was “suppressed” and the “Wnt5a expression (whole-tissue Western blot)” value [1] was “suppressed”. The “caspase-1 cleavage (whole-tissue Western blot)” value [1] was “suppressed” and the “expression of the cytolytic T cell marker Gzmb (tumor qRT-PCR)” value [1] was “enhanced”.

Reference: US12121565B2, “Methods of treatment of specific cancers with NLRP3 inhibitors and anti-PD1/PD-L1 antibodies” (Duke University, priority 2019, dated 2024)
